From EPA's ToxRefDB 2

Key:
rat [1] = details: Subchronic oral toxicity in rodents, sprague dawley, Feed, dose end: 90 day
dog = details: Chronic toxicity, beagle, Oral, Capsule, dose end: 12 month, group: systemic
rat [2] = details: Prenatal developmental toxicity study, sprague dawley, Oral, Gavage/Intubation, dose end: 15 GD
rat [3] = details: Combined chronic toxicity/carcinogenicity, sprague dawley, Oral, Feed, dose end: 24 month, group: systemic
rat [4] = details: Multigenerational reproductive toxicity study, sprague dawley, Oral, Feed, dose end: 2 generation
rat [5] = details: Combined chronic toxicity/carcinogenicity, sprague dawley, Dermal, Topical, dose end: 24 month, group: systemic
rat [6] = details: Subchronic oral toxicity in rodents, sprague dawley, Feed, dose end: 14 week, group: systemic
rat [7] = details: Subchronic oral toxicity in rodents, fischer, Gavage/Intubation, dose end: 13 week, group: systemic
mouse = details: Subchronic oral toxicity in rodents, b6c3f1, Gavage/Intubation, dose end: 13 week, group: systemic
[8] = group: cholinesterase, cholinesterase / cholinesterase / cholinesterase / cholinesterase (che)
[9] = group: systemic, systemic / hematology / mean corpuscular (cell) volume (mcv) / mean corpuscular (cell) volume (mcv) + systemic / hematology / mean …
[10] = group: systemic, systemic / organ weight / thyroid gland / absolute
[11] = systemic / clinical chemistry / alkaline phosphatase (alp/alk) / alkaline phosphatase (alp/alk) + systemic / organ weight / liver / absolute…
[12] = group: developmental, developmental / developmental malformation / heart / [other] + developmental / developmental malformation / heart / defect a-v septum
[13] = group: developmental, developmental / developmental malformation / heart / [other] + developmental / developmental malformation / heart / defect a-v septum + …
[14] = group: maternal, reproductive / reproductive performance / resorptions / resorptions + reproductive / offspring survival early / litter size / litter size + …
[15] = systemic / pathology microscopic / kidney / nephropathy + systemic / hematology / hemoglobin (hgb) / hemoglobin (hgb) + systemic / …
[16] = group: offspring, developmental / offspring survival late / viability index / viability index + systemic / in life observation / body weight / offspring (pup…
[17] = group: parental, systemic / in life observation / body weight / body weight + systemic / in life observation / body weight / body weight gain + systemic / in…
[18] = group: reproductive, reproductive / offspring survival early / birth index / live birth index
[19] = systemic / pathology microscopic / skin / hyperkeratosis
[20] = systemic / pathology microscopic / skin / hyperkeratosis + systemic / pathology microscopic / skin / acanthosis + systemic / clinical …
[21] = systemic / in life observation / body weight / body weight + systemic / in life observation / body weight / body weight gain + systemic / …
[22] = systemic / clinical chemistry / urea nitrogen / urea nitrogen + systemic / hematology / neutrophils / neutrophils + systemic / in life …
[23] = systemic / in life observation / body weight / body weight + systemic / in life observation / body weight / body weight gain + systemic / in…
[24] = systemic / hematology / hemoglobin (hgb) / hemoglobin (hgb)
[25] = systemic / hematology / hemoglobin (hgb) / hemoglobin (hgb) + systemic / hematology / erythrocyte (rbc) count differential / erythrocyte (…

For `C#CCN1C(=O)COc2cc(F)c(N3C(=O)C4=C(CCCC4)C3=O)cc21` [Flumioxazin], the LEL (rat [1]; [8]) was 218 mg/kg/day, the LOAEL (rat [1]; [8]) was > 218 mg/kg/day and the NEL (rat [1]; [8]) was 72.9 mg/kg/day. The NOAEL (rat [1]; [8]) was ≥ 218 mg/kg/day, the LOAEL (rat [1]; [9]) was 22.4 mg/kg/day and the NOAEL (rat [1]; [9]) was 2.2 mg/kg/day. The LEL (rat [1]; [10]) was 1.9 mg/kg/day, the NEL (rat [1]; [10]) was < 1.9 mg/kg/day and the LOAEL (dog; [11]) was 1000 mg/kg/day. The NEL (dog; [11]) was 10 mg/kg/day, the NOAEL (dog; [11]) was 100 mg/kg/day and the LEL (dog; systemic / organ weight / pituitary gland / absolute + systemic / organ weight / prostate / absolute + systemic / pathology microscopic / …) was 100 mg/kg/day. The LEL (rat [2]; [12]) was 10 mg/kg/day, the LOAEL (rat [2]; [12]) was 10 mg/kg/day and the NEL (rat [2]; [13]) was 3 mg/kg/day. The NOAEL (rat [2]; [13]) was 3 mg/kg/day, the NEL (rat [2]; group: maternal, reproductive / reproductive performance / resorptions / resorptions) was 10 mg/kg/day and the LEL (rat [2]; [14]) was 30 mg/kg/day. The LOAEL (rat [2]; [14]) was > 30 mg/kg/day, the NOAEL (rat [2]; [14]) was ≥ 30 mg/kg/day and the LOAEL (rat [3]; systemic / pathology microscopic / kidney / nephropathy) was 18 mg/kg/day. It also gave an LEL (rat [3]; systemic / pathology microscopic / kidney / nephropathy + systemic / hematology / hemoglobin (hgb) / hemoglobin (hgb) + systemic / pathology…) of 18 mg/kg/day, an NEL (rat [3]; [15]) of 1.8 mg/kg/day and an NOAEL (rat [3]; [15]) of 1.8 mg/kg/day. For the same compound, the LEL (rat [4]; [16]) was 12.7 mg/kg/day, the NEL (rat [4]; [16]) was 6.3 mg/kg/day and the LOAEL (rat [4]; group: offspring, systemic / in life observation / body weight / offspring (pup) weight) was 15.1 mg/kg/day. It also gave an NOAEL (rat [4]; group: offspring, systemic / in life observation / body weight / offspring (pup) weight + developmental / offspring survival late / lactation index / …) of 7.6 mg/kg/day, an LOAEL (rat [4]; group: parental, systemic / in life observation / body weight / body weight) of 12.7 mg/kg/day and an NEL (rat [4]; [17]) of 6.3 mg/kg/day. The NOAEL (rat [4]; [17]) was 6.3 mg/kg/day, the LEL (rat [4]; group: parental, systemic / in life observation / body weight / body weight + systemic / organ weight / epididymis / absolute + systemic / organ weight / …) was 12.7 mg/kg/day and the LEL (rat [4]; [18]) was 12.7 mg/kg/day. For the same compound, the LOAEL (rat [4]; [18]) was 12.7 mg/kg/day, the NEL (rat [4]; [18]) was 6.3 mg/kg/day and the NOAEL (rat [4]; [18]) was 6.3 mg/kg/day.
In the case of `CCC(C)OC(=O)N1CCCCC1CCO` (configuration not stated) [Icaridin], the LEL (rat [5]; [19]) is reported as 50 mg/kg/day, the NEL (rat [5]; [19]) is reported as < 50 mg/kg/day and the LOAEL (rat [5]; [20]) is reported as > 200 mg/kg/day. The NOAEL (rat [5]; [20]) was ≥ 200 mg/kg/day, the LOAEL (rat [6]; [21]) was 1030 mg/kg/day and the NEL (rat [6]; [21]) was 100 mg/kg/day. It also gave an NOAEL (rat [6]; [21]) of 301 mg/kg/day and an LEL (rat [6]; systemic / organ weight / kidney / relative to body weight + systemic / clinical chemistry / alanine aminotransferase (alt/sgpt) / alanine …) of 149 mg/kg/day.
With `O=C1OC(=O)c2c(Cl)c(Cl)c(Cl)c(Cl)c21` [Tetrachlorophthalic anhydride] the LOAEL (rat [7]; [22]) was > 1500 mg/kg/day, the NOAEL (rat [7]; [22]) was ≥ 1500 mg/kg/day and the LEL (rat [7]; [23]) was 94 mg/kg/day. For the same compound, the NEL (rat [7]; [23]) was < 94 mg/kg/day, the LEL (mouse; [24]) was 94 mg/kg/day and the NEL (mouse; [24]) was < 94 mg/kg/day. The LOAEL (mouse; [25]) was > 1500 mg/kg/day and the NOAEL (mouse; [25]) was ≥ 1500 mg/kg/day.
